Experimental data taken from the supplement of paper PMC10307832.

Tests used:
Experiment in all cases: relative viability (nuclei count vs DMSO), 5 days (fraction); higher = more cells survive
[1] = compound: C/C(=N\NC(=S)N1CCC1)/C2=CC=CC=N2 + CC(=O)Nc1cccc(-n2c(=O)n(C3CC3)c(=O)c3c(Nc4ccc(I)cc4F)n(C)c(=O)c(C)c32)c1 [Trametinib] (partner 0.02 µM)
In short: (§1)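 Each reported value is a median over duplicate plates. It expresses relative viability: treated-well nuclei count divided by vehicle-well nuclei count. Lung cancer cell lines in 1536-well plates were dosed by pin tool a day after seeding, alone with one drug or with a fixed anchor-drug dose plus five library-drug doses (not always all listed) in √10 steps, and nuclei were counted after 5 days.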

[2] = compound: C/C(=N\NC(=S)N1CCC1)/C2=CC=CC=N2 + CS(=O)(=O)CCNCc1ccc(-c2ccc3ncnc(Nc4ccc(OCc5cccc(F)c5)c(Cl)c4)c3c2)o1 [Lapatinib] (partner 2 µM)
In short: as §1

[3] = compound: C/C(=N\NC(=S)N1CCC1)/C2=CC=CC=N2 + N=C(N)NC(=N)NCCc1ccccc1 [Phenformin] (partner 250 µM)
In short: as §1

[4] = compound: C/C(=N\NC(=S)N1CCC1)/C2=CC=CC=N2 + O=C(c1cc(Cc2n[nH]c(=O)c3ccccc23)ccc1F)N1CCN(C(=O)C2CC2)CC1 [Olaparib] (partner 8 µM)
In short: as §1

Cell Line | relative viability ([1]; first compound 0.05 µM) | relative viability ([1]; first compound 0.1581 µM) | relative viability ([1]; first compound 0.5 µM) | relative viability ([1]; first compound 1.581 µM) | relative viability ([1]; first compound 5 µM) | relative viability ([2]; first compound 0.05 µM) | relative viability ([2]; first compound 0.1581 µM) | relative viability ([2]; first compound 0.5 µM) | relative viability ([2]; first compound 1.581 µM) | relative viability ([2]; first compound 5 µM) | relative viability ([3]; first compound 0.05 µM) | relative viability ([3]; first compound 0.1581 µM) | relative viability ([3]; first compound 0.5 µM) | relative viability ([3]; first compound 1.581 µM) | relative viability ([3]; first compound 5 µM) | relative viability ([4]; first compound 0.05 µM) | relative viability ([4]; first compound 0.1581 µM) | relative viability ([4]; first compound 0.5 µM) | relative viability ([4]; first compound 1.581 µM) | relative viability ([4]; first compound 5 µM)
COR-L 105 | 0.376 | 0.462 | 0.377 | 0.343 | 0.339 | 0.375 | 0.342 | 0.375 | 0.314 | 0.286 | 0.198 | 0.299 | 0.29 | 0.196 | 0.214 | 0.365 | 0.381 | 0.374 | 0.337 | 0.318
LK-2 | 0.174 | 0.187 | 0.184 | 0.146 | 0.159 | 0.171 | 0.25 | 0.201 | 0.144 | 0.199 | 0.119 | 0.185 | 0.13 | 0.085 | 0.151 | 0.076 | 0.14 | 0.104 | 0.0854 | 0.0916
NCI-H727 | 0.361 | 0.33 | 0.358 | 0.367 | 0.318 | 0.194 | 0.222 | 0.25 | 0.232 | 0.267 | 0.29 | 0.314 | 0.341 | 0.375 | 0.382 | 0.437 | 0.273 | 0.295 | 0.347 | 0.4
RERF-LC-KJ | 0.242 | 0.241 | 0.204 | 0.222 | 0.214 | 0.258 | 0.263 | 0.23 | 0.253 | 0.275 | 0.316 | 0.279 | 0.319 | 0.273 | 0.287 | 0.255 | 0.248 | 0.274 | 0.271 | 0.255
NCI-H2023 | 0.0918 | 0.0896 | 0.0543 | 0.069 | 0.0829 | 0.0813 | 0.0823 | 0.106 | 0.064 | 0.0792 | 0.102 | 0.106 | 0.0921 | 0.0767 | 0.0997 | 0.0912 | 0.0578 | 0.0664 | 0.0644 | 0.0565
NCI-H322M | 0.451 | 0.45 | 0.424 | 0.43 | 0.423 | 0.258 | 0.281 | 0.222 | 0.243 | 0.301 | 0.332 | 0.375 | 0.249 | 0.255 | 0.311 | 0.334 | 0.334 | 0.398 | 0.398 | 0.467
NCI-H1666 | 0.545 | 0.558 | 0.495 | 0.467 | 0.5 | 0.229 | 0.27 | 0.273 | 0.198 | 0.228 | 0.467 | 0.462 | 0.419 | 0.433 | 0.361 | 0.601 | 0.547 | 0.479 | 0.461 | 0.523
NCI-H1648 | 0.408 | 0.403 | 0.289 | 0.302 | 0.31 | – | – | – | – | – | – | – | – | – | – | 0.624 | 0.794 | 0.294 | 0.278 | 0.226
NCI-H2087 | 0.104 | 0.123 | 0.11 | 0.108 | 0.0815 | 0.196 | 0.268 | 0.224 | 0.195 | 0.143 | 0.141 | 0.156 | 0.166 | 0.0953 | 0.0819 | 0.123 | 0.113 | 0.138 | 0.144 | 0.0767
